# Source: patent EP0002259B1, “Hydantoin derivatives and salts thereof, their synthesis and pharmaceutical formulations” (THE WELLCOME FOUNDATION LIMITED, priority 1977, dated 1979)
# How the values were obtained:
# [1] = tested on: platelets in fresh human platelet rich plasma (PRP); test: Inhibition of platelet aggregation (ADP-stimulated, Born aggregometer), activity compared to PGE1; assay type: cell-based; conditions: 37°C for 1 minute, ADP 5 µm
# Experimental: Aggregation of platelets in 1 ml of fresh human platelet rich plasma (PRP) was monitored in a Born aggregometer.
# The compound to be tested was added to the PRP at the desired concentration, and the resulting mixture incubated at 37°C for 1 minute after which platelet aggregation was stimulated by the addition of adenosine diphosphate (ADP) to a concentration of 5 µm.
# The antiaggregatory effect of the compound was assessed by measuring the percentage inhibition of platelet aggregation in the presence of the compound as compared with when it was absent. The percentage inhibitions at various concentrations of hydantoin and prostaglandin E, (PGE,) were established and compared to show activity compared to PGE,.
# [2] = Solubility in volatile solvent (tablet formulation); assay type: physicochemical; conditions: methanol, ethanol
# Experimental: The compound was dissolved in a volatile solvent. […] The mixture was then pressed to tablets, each 226 mg in weight.
# [3] = tested on: Male normotensive rats Wistar (Charles River) strain; test: Cardiovascular effects in anaesthetised rats (hypotensive effect compared with prostacyclin); assay type: in vivo; conditions: intravenous injection in physiological saline
# Experimental: Male normotensive rats Wistar (Charles River) strain, ([…]) were anesthetised (chloroform) prior to cannulation to left femoral vein and anaestesia maintained by intravenous chloralose (60 mg/kg). Pulsatile blood pressure was recorded from the left femoral artery with an electronic transducer (Bell and Howell Type 4-327 L221) and integrated heart rate was measured with a cardiotachometer triggered from the arterial pressure waves.
# The test compound (less polar diastereomer of the compounds of Example 2) was administered as a solution in physiological saline by intravenous injection via the femoral cannula. The responses recorded were allowed to return to the preinjection levels between successive administrations.
structure (smiles),measurement,setting,value
"CCCCCC(O)CCN1C(=S)NC(=O)C1CCCCCCC(=O)O (centres unmarked) [Example 1 more, 5-(6-carboxyhexyl)-1-(3-hydroxyoctyl)-2-thiohydantoin]",Inhibition of Platelet Aggregation (X PGE1),[1]; activity relative to PGE1,"<0,01 X PGE1"
"O=C(O)CCCCCCC1C(=O)NC(=S)N1CCC(O)C1CCCC1 (centres unmarked) [Example 5 less, 5-(6-carboxyhexyl)-1-(3-cyclopentyl-3-hydroxypropyl)-2-thiohydantoin]",Inhibition of Platelet Aggregation (X PGE1),[1]; activity relative to PGE1,"0,03 X PGE1"
"O=C(O)CCC/C=C\CC1C(=O)NC(=S)N1CCC(O)C1CCCCC1 (centres unmarked) [Example 6 more, 5-(6-carboxyhex-2Zenyl)-1-(3-cyclohexyl-3-hydroxypropyl)-2-thiohydantoin]",Inhibition of Platelet Aggregation (X PGE1),"[1]; activity relative to PGE1, listed as 6 more","0,02 X PGE1"
"O=C(O)CCC/C=C\CC1C(=O)NC(=S)N1CCC(O)C1CCCCC1 (centres unmarked) [Example 6 less, 5-(6-carboxyhex-2Zenyl)-1-(3-cyclohexyl-3-hydroxypropyl)-2-thiohydantoin]",Inhibition of Platelet Aggregation (X PGE1),"[1]; activity relative to PGE1, listed as 6 less","0,04 X PGE1"
"O=C(O)CCCCCCC1C(=O)NC(=S)N1CCC(O)C1CCCCC1 (single isomer, unassigned) [Example 3 less, 5-(6-carboxyhexyl)-l-(3-cyclohexyl-3-hydroxypropyl)-2-thiohydantoin]",solubility,[2],soluble in methanol and in ethanol
"CC(C)(C)CC(O)CCN1C(=S)NC(=O)C1CCCCCCC(=O)O (centres unmarked) [Example 2 more, 5-(6-carboxyhexyl)-1-(5,5-dimethyl-3-hydroxyhexyl)-2-thiohydantoin]",Inhibition of Platelet Aggregation (X PGE1),"[1]; activity relative to PGE1, listed as 2 more","0,01 X PGE1"
"CC(C)(C)CC(O)CCN1C(=S)NC(=O)C1CCCCCCC(=O)O (centres unmarked) [Example 2 less, 5-(6-carboxyhexyl)-1-(5,5-dimethyl-3-hydroxyhexyl)-2-thiohydantoin]",Inhibition of Platelet Aggregation (X PGE1),"[1]; activity relative to PGE1, listed as 2 less","0,04 X PGE1"
same,"hypotensive effect, per cent of the hypotensive effect of prostacyclin",[3],less than one
